Results as given in US20240158446A1, “CYCLIC COMPOUND HAVING SELECTIVE INHIBITORY ACTION ON KRAS OVER HRAS AND NRAS” (CHUGAI SEIYAKU KABUSHIKI KAISHA, priority 2021, published 2024).
*1 amine or outer side, *2 acyl side, *3 side chain or, on linkers, in order; H or OH if unused. Where a SMILES comes first, the peptide text is derived from it. Bridges are numbered along the chain shown (N, C = ends). [ ]: non-standard residue; d: D form. The star is where a group is joined. hPhe(3-Cl-4-CF3) = N[C@@H](CCc1ccc(C(F)(F)F)c(Cl)c1)C(=O)O; NPrPhe(4-CF3) = CCCN[C@@H](Cc1ccc(C(F)(F)F)cc1)C(=O)O; NEtAsp = CCN([C@@H](CC(=O)[*:3])C(=O)[*:2])[*:1]; NMeGly(cPent) = CN[C@H](C(=O)O)C1CCCC1; Ac4c(3,3-Me2) = CC1(C)CC(N)(C(=O)O)C1; NEtLeu = CCN[C@@H](CC(C)C)C(=O)O; NMeD = CN[C@@H](CC(=O)O)C(=O)O; NMeL = CN[C@@H](CC(C)C)C(=O)O; Morpholide = C1CN(*)CCO1; Ac5c = NC1(C(=O)O)CCCC1; NEtG = CCNCC(=O)O; Sar = CNCC(=O)O; Propyl = CCC*

How the values were obtained:
[1] = target: GDP-bound HRAS wild-type protein (Homo sapiens, UniProt P01112); experiment: Binding to HRAS by surface plasmon resonance (SPR), Single Cycle Kinetics; conditions: ratio of KD for GDP-bound HRAS wild-type protein to KD for KRAS, SPR
Sequence of GDP-bound HRAS wild-type protein (P01112 whole entry): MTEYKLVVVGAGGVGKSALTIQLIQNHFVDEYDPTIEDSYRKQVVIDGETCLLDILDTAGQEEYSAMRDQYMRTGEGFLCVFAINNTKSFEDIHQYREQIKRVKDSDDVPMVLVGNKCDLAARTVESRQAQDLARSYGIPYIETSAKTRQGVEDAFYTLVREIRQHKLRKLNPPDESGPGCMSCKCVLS

[2] = test system: human lung cancer strain NCI-H441; experiment: cells; conditions: NCI-H441, 96 h, read-out: NCI-H441 IC50 (nM), NCI-H441 cell proliferation, 4 days, CellTiter-Glo;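 note: cell proliferation inhibition after four days measured by CellTiter-Glo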
[3] = target: GDP-bound KRAS wild-type protein (Homo sapiens, UniProt P01116); experiment: Binding to KRAS by surface plasmon resonance (SPR), Single Cycle Kinetics; conditions: SPR, Single Cycle Kinetics, GDP-bound KRAS wild-type protein; read-out: KRAS KD
Sequence of GDP-bound KRAS wild-type protein (P01116 whole entry): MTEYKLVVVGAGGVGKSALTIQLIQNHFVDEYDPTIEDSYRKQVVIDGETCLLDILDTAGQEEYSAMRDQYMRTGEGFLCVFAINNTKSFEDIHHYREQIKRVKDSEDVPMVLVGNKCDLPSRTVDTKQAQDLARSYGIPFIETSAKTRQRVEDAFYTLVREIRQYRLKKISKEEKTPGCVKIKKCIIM

[4] = target: GDP-bound NRAS wild-type protein (Homo sapiens, UniProt P01111); experiment: Binding to NRAS by surface plasmon resonance (SPR), Single Cycle Kinetics; conditions: ratio of KD for GDP-bound NRAS wild-type protein to KD for KRAS, SPR
Sequence of GDP-bound NRAS wild-type protein (P01111 whole entry): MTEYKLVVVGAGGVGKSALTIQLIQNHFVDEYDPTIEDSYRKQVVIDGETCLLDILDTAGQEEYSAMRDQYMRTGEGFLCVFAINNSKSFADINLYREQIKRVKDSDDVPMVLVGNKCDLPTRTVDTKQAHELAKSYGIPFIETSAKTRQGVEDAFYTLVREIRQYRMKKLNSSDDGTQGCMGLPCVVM

Compound	HRAS/KRAS (KD ratio) [1]	IC50 [2] [nM]	Kd [3] [nM]	NRAS/KRAS (KD ratio) [4]
CCCO[C@H](C)[C@@H]1NC(=O)[C@H](CC(C)C)N(C)C(=O)C[C@@H](C(=O)N2CCOCC2)N(C)C(=O)[C@H](C2CCCC2)N(C)C(=O)C2(CC(C)(C)C2)NC(=O)[C@@H]2CCCN2C(=O)[C@H](CCc2ccc(C(F)(F)F)c(Cl)c2)NC(=O)CN(C)C(=O)[C@H](Cc2ccc(C(F)(F)F)cc2)N(CCC)C(=O)CN(C)C(=O)CN(C)C1=O [PP1965] ([NMeL]T(Propyl)[Sar][Sar][NPrPhe(4-CF3)][Sar][hPhe(3-Cl-4-CF3)]P[Ac4c(3,3-Me2)][NMeGly(cPent)][NMeD]-Morpholide; lactam N-11)	B (a compound having 3 or more and less than 10 is denoted as B)	17.4	0.3	B (a compound having 3 or more and less than 10 is denoted as B)
CCCN1C(=O)CN(C)C(=O)CNC(=O)[C@H]([C@@H](C)CC)NC(=O)[C@H](CC(C)C)N(CC)C(=O)C[C@@H](C(=O)N2CCOCC2)N(C)C(=O)[C@H](C2CCCC2)N(C)C(=O)C2(CCCC2)NC(=O)[C@@H]2CCCN2C(=O)[C@H](CCc2ccc(C(F)(F)F)c(Cl)c2)NC(=O)CN(C)C(=O)[C@@H]1Cc1ccc(C(F)(F)F)cc1 [PP1967] ([NEtLeu]IG[Sar][NPrPhe(4-CF3)][Sar][hPhe(3-Cl-4-CF3)]P[Ac5c][NMeGly(cPent)][NMeD]-Morpholide; lactam N-11)	B (a compound having 3 or more and less than 10 is denoted as B)	10.9	0.36	B (a compound having 3 or more and less than 10 is denoted as B)
CCCN1C(=O)CN(CC)C(=O)CNC(=O)[C@H]([C@@H](C)CC)NC(=O)[C@H](CC(C)C)N(C)C(=O)C[C@@H](C(=O)N2CCOCC2)N(C)C(=O)[C@H](C2CCCC2)N(C)C(=O)C2(CCCC2)NC(=O)[C@@H]2CCCN2C(=O)[C@H](CCc2ccc(C(F)(F)F)c(Cl)c2)NC(=O)CN(C)C(=O)[C@@H]1Cc1ccc(C(F)(F)F)cc1 [PP1968] ([NMeL]IG[NEtG][NPrPhe(4-CF3)][Sar][hPhe(3-Cl-4-CF3)]P[Ac5c][NMeGly(cPent)][NMeD]-Morpholide; lactam N-11)	C (A compound having a KD ratio of 0.1 or more and less than 3 is denoted as C)	13.5	0.76	C (A compound having a KD ratio of 0.1 or more and less than 3 is denoted as C)
CCCN1C(=O)CN(C)C(=O)CNC(=O)[C@H]([C@@H](C)CC)NC(=O)[C@H](CC(C)C)N(C)C(=O)C[C@@H](C(=O)N2CCOCC2)N(C)C(=O)[C@H](C2CCCC2)N(C)C(=O)C2(CCCC2)NC(=O)[C@@H]2CCCN2C(=O)[C@H](CCc2ccc(C(F)(F)F)c(Cl)c2)NC(=O)CN(CC)C(=O)[C@@H]1Cc1ccc(C(F)(F)F)cc1 [PP1969] ([NMeL]IG[Sar][NPrPhe(4-CF3)][NEtG][hPhe(3-Cl-4-CF3)]P[Ac5c][NMeGly(cPent)][NMeD]-Morpholide; lactam N-11)	C (A compound having a KD ratio of 0.1 or more and less than 3 is denoted as C)	74	2.1	B (a compound having 3 or more and less than 10 is denoted as B)
CCCN1C(=O)CN(C)C(=O)CNC(=O)[C@H]([C@@H](C)CC)NC(=O)[C@H](CC(C)C)N(C)C(=O)C[C@@H](C(=O)N2CCOCC2)N(CC)C(=O)[C@H](C2CCCC2)N(C)C(=O)C2(CCCC2)NC(=O)[C@@H]2CCCN2C(=O)[C@H](CCc2ccc(C(F)(F)F)c(Cl)c2)NC(=O)CN(C)C(=O)[C@@H]1Cc1ccc(C(F)(F)F)cc1 [PP1970] ([NMeL]IG[Sar][NPrPhe(4-CF3)][Sar][hPhe(3-Cl-4-CF3)]P[Ac5c][NMeGly(cPent)][NEtAsp]-Morpholide; lactam N-11)	B (a compound having 3 or more and less than 10 is denoted as B)	16.8	0.62	B (a compound having 3 or more and less than 10 is denoted as B)
CCCN1C(=O)CN(C)C(=O)[C@H](C)NC(=O)[C@H]([C@@H](C)CC)NC(=O)[C@H](CC(C)C)N(C)C(=O)C[C@@H](C(=O)N2CCOCC2)N(C)C(=O)[C@H](C2CCCC2)N(C)C(=O)C2(CCCC2)NC(=O)[C@@H]2CCCN2C(=O)[C@H](CCc2ccc(C(F)(F)F)c(Cl)c2)NC(=O)CN(C)C(=O)[C@@H]1Cc1ccc(C(F)(F)F)cc1 [PP1971] ([NMeL]IA[Sar][NPrPhe(4-CF3)][Sar][hPhe(3-Cl-4-CF3)]P[Ac5c][NMeGly(cPent)][NMeD]-Morpholide; lactam N-11)	B (a compound having 3 or more and less than 10 is denoted as B)	38	5	B (a compound having 3 or more and less than 10 is denoted as B)
CC[C@H](C)[C@@H]1NC(=O)[C@H](CCOC)N(C)C(=O)C[C@@H](C(=O)N(C)CC)N(C)C(=O)[C@H](C2CCCC2)N(C)C(=O)C2(CC(C)(C)C2)NC(=O)[C@@H]2C[C@H](C)CN2C(=O)[C@H](CCc2cc(F)c(C(F)(F)F)c(F)c2)NC(=O)CN(C)C(=O)[C@H](Cc2ccc(C(F)(F)F)cc2)N2CC/C=C\C[C@@H](C2=O)N(C)C(=O)CN(C)C1=O [PP1972]	A (a compound having 10 or more and less than 20 is denoted as A)	13.2	0.15	A (a compound having 10 or more and less than 20 is denoted as A)
CCCOC[C@H]1C(=O)N[C@@H]([C@@H](C)CC)C(=O)N(C)CC(=O)N(C)[C@H]2C/C=C\CCN(C2=O)[C@@H](Cc2ccc(C(F)(F)F)cc2)C(=O)N(C)CC(=O)N[C@@H](CCc2ccc(C(F)(F)F)c(OC)c2)C(=O)N2C[C@H](OCC)C[C@H]2C(=O)NC2(CC(C)(C)C2)C(=O)N(C)[C@@H](C2CCCC2)C(=O)N(C)[C@H](C(=O)N(C)CC)CC(=O)N1C [PP1973]	B (a compound having 3 or more and less than 10 is denoted as B)	8.7	0.099	A (a compound having 10 or more and less than 20 is denoted as A)
CCCN(C)C(=O)[C@@H]1CC(=O)N(C)[C@@H](CCOC)C(=O)N[C@@H]([C@@H](C)CC)C(=O)N(C)CC(=O)N(C)[C@H]2C/C=C\CCN(C2=O)[C@@H](Cc2ccc(C(F)(F)F)cc2)C(=O)N(C)CC(=O)N[C@@H](CCc2cc(F)c(C(F)(F)F)c(F)c2)C(=O)N2C[C@@H](C)C[C@H]2C(=O)NC2(CC(C)(C)C2)C(=O)N(C)[C@@H](C2CCCC2)C(=O)N1C [PP1974]	A (a compound having 10 or more and less than 20 is denoted as A)	50	0.18	A (a compound having 10 or more and less than 20 is denoted as A)
CCCN(C)C(=O)[C@@H]1CC(=O)N(C)[C@@H](CCOC)C(=O)N[C@@H]([C@@H](C)CC)C(=O)N(C)CC(=O)N(C)[C@H]2C/C=C\CCN(C2=O)[C@@H](Cc2ccc(C(F)(F)F)cc2)C(=O)N(C)CC(=O)N[C@@H](CCc2ccc(C(F)(F)F)c(OC)c2)C(=O)N2C[C@H](OCC)C[C@H]2C(=O)NC2(CC(C)(C)C2)C(=O)N(C)[C@@H](C2CCCC2)C(=O)N1C [PP1975]	A (a compound having 10 or more and less than 20 is denoted as A)	13.4	0.11	A (a compound having 10 or more and less than 20 is denoted as A)
CC[C@H](C)[C@@H]1NC(=O)[C@H](C(C)C)N(C)C(=O)C[C@@H](C(=O)N(C)CC)N(C)C(=O)[C@H](C2CCCC2)N(C)C(=O)C2(CC(C)(C)C2)NC(=O)[C@@H]2C[C@H](C)CN2C(=O)[C@H](CCc2cc(F)c(C(F)(F)F)c(F)c2)NC(=O)CN(C)C(=O)[C@H](Cc2ccc(C(F)(F)F)cc2)N2CC/C=C\C[C@@H](C2=O)N(C)C(=O)CN(C)C1=O [PP1976]	A (a compound having 10 or more and less than 20 is denoted as A)	92	0.37	AA (a compound having 20 or more is denoted as AA)
CCO[C@@H]1C[C@H]2C(=O)NC3(CC(C)(C)C3)C(=O)N(C)[C@@H](C3CCCC3)C(=O)N(C)[C@H](C(=O)N(C)CC)CC(=O)N(C)[C@@H](C(C)C)C(=O)N[C@@H]([C@@H](C)CC)C(=O)N(C)CC(=O)N(C)[C@H]3C/C=C\CCN(C3=O)[C@@H](Cc3ccc(C(F)(F)F)cc3)C(=O)N(C)CC(=O)N[C@@H](CCc3ccc(C(F)(F)F)c(OC)c3)C(=O)N2C1 [PP1977]	A (a compound having 10 or more and less than 20 is denoted as A)	20.2	0.15	AA (a compound having 20 or more is denoted as AA)
CCO[C@@H]1C[C@H]2C(=O)NC3(CC(C)(C)C3)C(=O)N(C)[C@@H](C3CCCC3)C(=O)N(C)[C@H](C(=O)N(C)C)CC(=O)N(C)[C@@H](C(C)C)C(=O)N[C@@H]([C@@H](C)CC)C(=O)N(C)CC(=O)N(C)[C@H]3C/C=C\CCN(C3=O)[C@@H](Cc3ccc(C(F)(F)F)cc3)C(=O)N(C)CC(=O)N[C@@H](CCc3ccc(C(F)(F)F)c(OC)c3)C(=O)N2C1 [PP1979]	A (a compound having 10 or more and less than 20 is denoted as A)	12.5	0.087	AA (a compound having 20 or more is denoted as AA)
